# From PubChem BioAssay AID179 (DTP/NCI, 2004)
# Activity calls are given as the source filed them.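 Rule for the calls: active = compounds giving half or more protection of infected cells from virus-caused growth loss, again on retest; inactive = the rest.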
# System: CEM cells HIV-1 protection, formazan growth assay
# Test: NCI AIDS Antiviral Assay
# Conditions: for IC50: measured here: growth of uninfected CEM cells
# In short: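 CEM (human) cells, HIV-1 infected vs uninfected, 5-point dosing, formazan growth read-out. Retest threshold 50% protection.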
SMILES,EC50 [µM],IC50 [µM],outcome
CCC(CCCC[C@@H]1CC[C@H]2CC(=O)C[C@@H]12)OC (stereo not given in full),> 200,151,–
Cc1nc2ccccc2c(=O)n1NC(=O)c1ccccc1[N+](=O)[O-],> 200,> 200,–
COC(=O)C1=C(C)N2CCSC2(C)C(C(=O)OC)C1c1cccc(Cl)c1 (stereo not given),> 200,42.7,–
CC1OC(OC2C(CO)OC(O[C@H]3CC[C@@]4(C)C(=CC[C@H]5[C@@H]6C[C@@H]7O[C@](O)(CC[C@H](C)COC8OC(CO)C(O)C(O)C8O)[C@@H](C)[C@@H]7[C@@]6(C)CC[C@@H]54)C3)C(OC3OC(C)C(O)C(O)C3O)C2O)C(O)C(O)C1O (stereo not given in full),> 200,1.48,–
O=C(O)/C(Cl)=C(Cl)/C=N/NC(=O)c1cc2ccccc2cc1O,> 102,5.75,–
CCCCOC(=O)NC(Nc1ccc(S(=O)(=O)Nc2ccc(OC)nn2)cc1)(C(F)(F)F)C(F)(F)F,> 200,> 200,–
CCOC(=O)[C@H]1Nc2ccc(O)cc2C2c3ccccc3CC21 (stereo not given in full),> 302,56.2,–
NC(=O)c1ccc(S(=O)(=NS(=O)(=O)c2ccccc2)c2ccc(C(N)=O)cc2)cc1,> 295,> 295,–
Cn1c2ccccc2c(=NNc2cccc(C(=O)O)c2)c2ccccc21,> 200,3.8,–
O=CCCCC(Sc1ccccc1)Sc1ccccc1,–,–,inactive
C(/C=N/NC1=NCCN1)=N\NC1=NCCN1,> 200,> 200,–
COC(=O)C(=O)C(C(=O)C=C(C)C)C(=O)C(=O)Nc1ccc(C)cc1C (stereo not given),> 100,> 100,–
COc1ccc(C2S/C(=C\c3ccc(OC)cc3OC)C(=O)N2NC(=O)Cc2ccccc2)cc1 (stereo not given),> 52.5,> 52.5,–
CCC1C(=O)OC2OC(c3ccccc3)(c3ccccc3)NC21 (stereo not given),> 200,> 100,–
Cc1ccnc(NC(=S)Nc2ccc([N+](=O)[O-])cc2)c1,> 200,> 200,–
C=C(NC(=O)C(=C)NC(=O)c1csc(C2=NC3c4csc(n4)C4NC(=O)c5csc(n5)C(C(C)(O)C(C)O)NC(=O)C5CSC(=N5)/C(=C/C)NC(=O)C(C(C)O)NC(=O)c5csc(n5)C3(CC2)NC(=O)C(C)NC(=O)C(=C)NC(=O)C(C)NC(=O)C(C(C)CC)NC2C=Cc3c(C(C)O)cc(nc3C2O)C(=O)OC4C)n1)C(N)=O (stereo not given),8.91,43.7,–
Cc1c2ccccc2nc(CSc2nc3ccccc3s2)[n+]1[O-],64.6,> 200,–
O=C(/C(=C\C(=O)c1cccs1)c1ccsc1)c1ccc(Br)cc1,–,–,inactive
CCOc1ncn(-c2ccc(NC(=S)Nc3cnccn3)cc2)n1,129,> 200,–
CC(C)N1CCC2(CC1)NNc1ncccc1-n1cccc12,> 676,355,–
CC(C)(C)OP(O)(=S)OC(C)(C)C,> 200,> 200,–
CCOC(=O)Cn1c(=O)c2nc(SC)sc2n(CC)c1=S,–,–,inactive

SMILES,EC50 [µM],IC50 [µM],outcome
COc1cc(C(=O)NO)ccc1O,> 8510,447,–
O=C1/C(=N\O)C2CCC1C2 (stereo not given),> 363,> 363,–
CC(O)c1nc(C#N)c(N)o1 (stereo not given),3.31,> 200,–
CCOC(=O)c1nc(SC)sc1NC(=O)c1ccccc1N,> 200,> 200,–
O=C(C[n+]1ccccc1)N/N=C(/CCC(=O)N(Cc1ccccc1)Cc1ccccc1)CC(=O)c1ccccc1,> 437,> 437,–
CC1(C)OCC2OC3([C@H]4OC(C)(C)O[C@@H]4CO)OC(C)(C)OC3C2O1 (stereo not given in full),> 200,> 200,–
COc1c(O)c2c(=O)cc(OC)c3c4c(OC)cc(=O)c5c(O)c(OC)c6c(c(c1CC(C)(O)C6C(C)=O)c23)c54 (stereo not given),> 13.2,1.58,–
Cc1cc(CO)c(O)c(CN(CC(=O)O)CC(=O)O)c1,> 200,141,–
Cc1cn(C2CC(Sc3cn[nH]n3)C(CO)O2)c(=O)[nH]c1=O (stereo not given),> 380,75.9,–
O=C1CC(c2ccsc2)n2cccc21 (stereo not given),186,> 200,–
OC1=C(O)c2ccccc21,> 1860,> 1860,–
NC(=S)N/N=C/c1cccc(CC(O)(C(F)(F)F)C(F)(F)F)n1,> 200,5.89,–
CCCNC(=O)Nc1c([N+](=O)[O-])cc(C(F)(F)F)cc1[N+](=O)[O-],–,–,inactive
CCOC(=O)/C=C/c1nc(C#N)c(N)o1,> 200,102,–
C/C(=N\NC(=O)c1ccncc1)c1cccc(C(F)(F)F)c1,> 85.1,> 85.1,–
CC(=O)C(C(C)=O)C1c2ccccc2-n2nc(-c3ccccc3)c(O)c21 (stereo not given),> 100,0.794,–
Cc1cn(CCCCOC(=O)NC(CCCNC(N)=O)C(=O)O)c(=O)[nH]c1=O (stereo not given),> 200,> 200,–
CCc1n[nH]c(=O)n1N1C(=O)C2CCCCC2C1=O (stereo not given),> 200,> 200,–
COc1ccc(/C=C/c2cnc3ccccc3n2)cc1OC,> 200,155,–
CC1=C2NCN(C)N=C2C(C#N)(C#N)C1(C#N)C#N,> 200,10.5,–
O=c1[nH]cnc2c(NC3OC(CO)C(O)C3O)cccc12 (stereo not given),–,–,inactive
COC(=O)c1ccc2c(O)c(O)ccc2c1,> 200,3.16,–

SMILES,EC50 [µM],IC50 [µM],outcome
O=[N+]([O-])/C=C/c1ccc(O)cc1,–,–,inactive
CCCN(CCCC(NC(C)=O)C(=O)NCc1ccccc1)C(=O)N(CCCl)N=O (stereo not given),–,–,inactive
Cc1c(-c2coc(-c3ccc([N+](=O)[O-])cc3)n2)c(=O)n(-c2ccccc2)n1C,> 36.3,> 36.3,–
Cc1nc(N)sc1C(=O)/C=C/c1ccc(/C=C/C(=O)c2sc(NC(=O)CCCCCCCCC(=O)Nc3nc(C)c(C(=O)/C=C/c4ccc(/C=C/C(=O)c5sc(N)nc5C)cc4)s3)nc2C)cc1,> 251,162,–
CC(C)COC(=N)c1ccccc1C1(O)CCCCC1,> 200,117,–
COc1ccc(/C=C/C(=O)c2ccccc2)cc1,> 41.7,24.5,–
O=C(O)CCSC(=S)NCCNC(=S)SCCC(=O)O,> 708,437,–
COc1nc2ccc(COc3ccc(C(=O)O)cc3)cc2nc1OC,> 200,132,–
COc1cc2cnc3c4cc(O)ccc4ccc3c2cc1OC,> 85.1,44.7,–
O=c1ccc2cc3ccoc3c(OCCCCCCBr)c2o1,> 75.9,30.9,–
C[C@@H](O)[C@H]1/C=C/C=C\C(=O)O[C@@H]2C[C@H]3O[C@@H]4[C@@H]5OC5(C)CCC4(COC(=O)[C@H]4O[C@]4(C)[C@@H](O)CO1)[C@]2(C)[C@]31CO1 (stereo not given in full),> 0.2,0.0631,–
CSc1ncnc2c1C[P+](Cc1ccccc1)(c1ccccc1)CC2 (stereo not given),> 562,> 562,–
N#Cc1c(N=C/C=C/c2ccccc2)c(C(=O)Nc2ccccc2)n2c1CCCC2,> 200,> 200,–
CC(=NC1C2CC3CC(C2)CC1C3)c1ccc(N=NC2C(=O)NN=C2C)cc1 (stereo not given),> 10,> 10,–
C=C=C(C)C(C(C)C)N1CCCC1 (stereo not given),> 1230,138,–
O=c1c2ccccc2c2c1c1c3ccccc3c(=O)c1c1c3ccccc3c(=O)c21,> 200,> 200,–
COC(=O)C(CC=O)C(=O)C(=O)Nc1cccc(C(F)(F)F)c1 (stereo not given),> 282,> 282,–
COc1ccccc1/C=C(\NC(=O)c1ccccc1)c1nc2ccc(Cl)cc2[nH]1,> 46.8,> 46.8,–
CN(c1ccccc1)c1nc(=[N+](C)C)ss1,–,–,inactive
CC(CO)NNC(C)CO (stereo not given),> 200,> 200,–
CCN(CC)c1ccc(C(=C2C=CC(=[N+](CC)CC)C=C2)c2ccccc2)cc1,–,–,inactive
CC(=O)c1c(O)cc2c(c1O)C1CC(C)(CCC1=C(C)C)O2 (stereo not given),> 186,26.3,–

SMILES,EC50 [µM],IC50 [µM],outcome
O=C(C(=O)n1ccc2ccccc21)n1ccc2ccccc21,> 200,178,–
NC(=O)C(=CN1C(=O)/C(=C/c2ccccc2O)SC1=S)C(N)=O,> 200,123,–
CC(=O)c1c(P(=O)(OC(C)C)OC(C)C)nn(-c2ccc([N+](=O)[O-])cc2)c1C,> 166,> 166,–
CCCCCCCCC=CCCCCCCCC(=O)O[C@H](COC(=O)CCCCCCC/C=C\CCCCCCCC)COP(=O)(O)OCCNC(=O)CCC(=O)OCCC=C(c1cc(Cl)c(OC)c(C(=O)OC)c1)c1cc(Cl)c(OC)c(C(=O)OC)c1,> 100,60.3,–
Cc1cc(=O)[nH]c(=S)n1-c1nc2ccccc2o1,> 115,> 115,–
CN(C)CNc1ncnc2onc(-c3ccccc3)c12,–,–,inactive
O=C1[C@@H]2C(c3ccccn3)=NO[C@@H]2C(=O)N1c1ccc(Cc2ccc(N3C(=O)[C@H]4C(c5ccccn5)=NO[C@H]4C3=O)cc2)cc1,> 8.71,> 8.71,–
O=S(=O)(O)c1ccc(O)c2ncc(Cl)cc12,> 200,> 200,–
COc1ccc(/C=C/C(=O)c2ccc(OC(=O)/C=C/c3ccccc3)cc2)cc1,> 200,9.12,–
O=C1c2cc3c(cc2CC1Br)CCC3 (stereo not given),> 20,0.38,–
O=[N+]([O-])c1cc(S(=O)(=O)c2ccc(S)c([N+](=O)[O-])c2)ccc1S,–,–,inactive
Cc1cn(C2OC(CO)(C(F)(F)F)C(O)C2O)c(=O)[nH]c1=O (stereo not given),> 200,> 200,–
S=c1cn[nH]c2ccc(S)cc12,> 182,102,–
Cc1oc2ccccc2c(=O)c1CN1CCN(c2ccccn2)CC1,> 214,129,–
COC(=S)NP(=O)(NC(=S)OC)NC(=S)OC,> 200,> 200,–
C/C=C(C)/C=C/CC(C)CCC=C(C)C (stereo not given),> 200,85.1,–
O=C(O)C1CCC(c2ccc(Oc3ccccc3)cc2)N1 (stereo not given),> 200,> 200,–
CS(=O)(=O)OCC1CN(S(C)(=O)=O)c2cc(O)ccc21 (stereo not given),> 200,1.51,–
Cc1nc2ccccc2c(=O)n1CC(=O)O,–,–,inactive
COc1ccc(C(=CCC(C)C2CCC3[C@@H]4C(OC(C)=O)CC5CC(OC(C)=O)CC[C@]5(C)C4CC(OC(C)=O)[C@]23C)c2ccc(OC)cc2)cc1 (stereo not given in full),> 200,95.5,–
